These are literature values, as cited in patent US20060154930A1, “Substituted amino heterocycles as vr-1 antagonists for treating pain” (priority 2003, published 2006).

The data set has as its target VR1 (Rattus norvegicus, UniProt O35433). Conditions: Wahl et al., Mol. Pharmacol, 59:9, 2001.

Sequence of VR1 (O35433 whole entry): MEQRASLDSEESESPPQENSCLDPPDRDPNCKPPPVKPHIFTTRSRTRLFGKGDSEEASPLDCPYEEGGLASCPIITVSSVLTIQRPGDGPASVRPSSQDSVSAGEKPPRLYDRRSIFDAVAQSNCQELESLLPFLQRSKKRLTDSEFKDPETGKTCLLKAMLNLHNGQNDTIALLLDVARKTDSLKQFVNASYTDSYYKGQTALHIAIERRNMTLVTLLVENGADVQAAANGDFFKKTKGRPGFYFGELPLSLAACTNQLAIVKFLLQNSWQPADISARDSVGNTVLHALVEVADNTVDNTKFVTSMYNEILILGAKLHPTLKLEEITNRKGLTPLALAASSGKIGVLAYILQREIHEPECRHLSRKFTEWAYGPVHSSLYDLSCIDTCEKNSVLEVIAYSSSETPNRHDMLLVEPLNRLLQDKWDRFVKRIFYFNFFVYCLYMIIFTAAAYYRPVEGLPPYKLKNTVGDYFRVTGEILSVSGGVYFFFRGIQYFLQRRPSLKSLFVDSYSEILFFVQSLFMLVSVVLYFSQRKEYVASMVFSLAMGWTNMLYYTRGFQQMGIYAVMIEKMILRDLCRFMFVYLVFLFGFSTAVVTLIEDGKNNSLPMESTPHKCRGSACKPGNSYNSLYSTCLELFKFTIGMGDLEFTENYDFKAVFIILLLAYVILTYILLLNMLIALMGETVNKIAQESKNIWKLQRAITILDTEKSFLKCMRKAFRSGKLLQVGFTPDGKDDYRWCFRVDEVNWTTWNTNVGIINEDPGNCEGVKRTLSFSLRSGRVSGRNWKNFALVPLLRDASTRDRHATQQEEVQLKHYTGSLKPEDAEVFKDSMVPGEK

In the case of `C=C(C)[C@]12C[C@@H](C)[C@@]34O[C@](Cc5ccccc5)(O[C@@H]1[C@@H]3C=C(COC(=O)Cc1cc(I)c(O)c(OC)c1)C[C@]1(O)C(=O)C(C)=C[C@@H]41)O2` [Iodo-resiniferatoxin], the “VR1 antagonist potency (in words)” value is “nanomolar antagonist”.
